We go through 29 compounds from patent US20240208986A1, “PHENYL AZEPINES AS RIPK1 INHIBITORS AND METHODS OF USE THEREOF” (Merck Sharp & Dohme LLC, priority 2021, published 2024).

Structures are written as SMILES.

As usually defined, the IC50 is the concentration that inhibits the measured activity by half.

RIPK1 (recombinant GST-RIPK1 kinase domain, residues 1-327), sequence (Q13546 1-327): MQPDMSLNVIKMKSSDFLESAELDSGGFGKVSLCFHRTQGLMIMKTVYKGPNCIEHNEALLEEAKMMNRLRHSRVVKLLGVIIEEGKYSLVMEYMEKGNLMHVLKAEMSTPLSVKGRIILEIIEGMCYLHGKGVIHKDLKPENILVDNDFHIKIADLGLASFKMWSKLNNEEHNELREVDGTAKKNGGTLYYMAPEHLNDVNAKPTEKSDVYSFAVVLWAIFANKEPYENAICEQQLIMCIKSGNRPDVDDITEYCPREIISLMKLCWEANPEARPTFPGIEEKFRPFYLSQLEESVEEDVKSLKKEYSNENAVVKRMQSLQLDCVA

The target of the test is RIPK1 (recombinant GST-RIPK1 kinase domain, residues 1-327) (Homo sapiens (Human), UniProt Q13546). In words: RIPK1-ADP-Glo Enzymatic Assay. Type of test: biochemical. The following applies: 25 nM GST-RIPK1, 300 μM ATP, 3 μM dephosphorylated-MBP; 30 minutes pre-incubation, 150 minutes reaction; ten-point titration. The procedure:
The enzymatic activity of RIPK1 is measured using an assay derived from ADP-Glo kit (™Promega), which provides a luminescent-based ADP detection system. Specifically, the ADP generated by RIPK1 kinase is proportionally detected as luminescent signals in a homogenous fashion. In this context, the assessment of the inhibitory effect of small molecules (EC50) is measured by the effectiveness of the compounds to inhibit the ATP to ADP conversion by RIPK1.
In this assay, the potency (EC50) of each compound was determined from a ten-point (1:3 serial dilution; top compound concentration of 100000 nM) titration curve using the following outlined procedure. To each well of a white ProxiPlus 384 well-plate, 30 nL of compound (1% DMSO in final assay volume of 3 μL) was dispensed, followed by the addition of 2 μL of 1× assay buffer (25 mM Hepes 7.3, 20 mM MgCl2, 50 mM NaCl, 1 mM DTT, 0.005% Tween20, and 0.02% BSA) containing 37.5 nM of GST-RIPK1 (recombinant GST-RIPK1 kinase domain (residues 1-327) enzyme produced from baculovirus-transfected Sf21 cells: MW=62 kDa). Plates were placed in an ambient temperature humidified chamber for a 30 minutes pre-incubation with compound. Subsequently, each reaction was initiated by the addition of 1 μL 1× assay buffer containing 900 μM ATP and 3 μM dephosphorylated-MBP substrate. The final reaction in each well of 3 μL consists of 25 nM of GST-RIPK1, 300 μM ATP, and 3 μM dephosphorylated-MBP. Kinase reactions were allowed to proceed for 150 minutes prior to adding ADP-Glo reagents per Promega's outlined kit protocol. Dose-response curves were generated by plotting percent effect (% product conversion; Y-axis) vs. Log10 compound concentrations (X-axis). EC50 values were calculated using a non-linear regression, four-parameters sigmoidal dose-response model.
A general note: In ADP-Glo the light output rises with the ADP produced.
Turning to `CC(F)(F)C(C)(C)C(=O)N1C[C@@H]2C[C@H]1c1cccc(F)c1O2` [Compound 2-12, 3,3-difluoro-1-[(2S,5S)-9-fluoro-2,3-dihydro-2,5-methano-1,4-benzoxazepin-4(5H)-yl]-2,2-dimethylbutan-1-one], the IC50 turned out to be 20 nM.
For the compound `CC(C)(C(=O)N1C[C@@H]2C[C@H]1c1ccccc1O2)C(F)F` [Compound 1-2, 1-((2S,5S)-2,3-dihydro-2,5-methanobenzo[f][1,4]oxaze-pin-4(5H)-yl)-3,3-difluoro-2,2-dimethylpropan-1-one], the IC50 turned out to be 61 nM.
In the case of `CC(C)(C)C(=O)N1C[C@H]2Cc3ccccc3[C@@H]1C2` [Compound 3-2, 2,2-dimethyl-1-((1S,4S)-1,3,4,5-tetrahydro-2H-1,4-methanobenzo[c]azepin-2-yl)propan-1-one], the IC50 is 2240 nM.
Next, `N#Cc1cc(N2CCC(C(=O)N3C[C@@H]4C[C@H]3c3ccccc3O4)CC2)ncn1` [Compound 1-36, 6-{4-[(2S,5S)-2,3-dihydro-2,5-methano-1,4-benzoxazepine-4(5H)-carbonyl]piperidin-1-yl}pyrimidine-4-carbonitrile]: 327 nM.
The same measure for `N#CC1(C(=O)N2C[C@@H]3C[C@H]2c2ccccc2O3)CCC1` [Compound 1-30, 1-[(2S,5S)-2,3-dihydro-2,5-methano-1,4-benzoxazepine-4(5H)-carbonyl]cyclobutane-1-carbonitrile]: 76 nM.
As to `CC(C)(CC#N)C(=O)N1C[C@@H]2C[C@H]1c1ccccc1O2` [Compound 1-57, 4-[(2S,5S)-2,3-dihydro-2,5-methano-1,4-benzoxazepin-4(5H)-yl]-3,3-dimethyl-4-oxobutanenitrile], the half-maximal inhibitory concentration (IC50) was 56 nM.
Next, `CC(C)(C)C(=O)N1C[C@@H]2C[C@H]1c1ccccc1O2` [Compound 1-1, 1-((2S,5S)-2,3-dihydro-2,5-methanobenzo[f][1,4]oxaze-pin-4(5H)-yl)-2,2-dimethylpropan-1-one]: 48 nM; `C[C@@H]1[C@@H]2C[C@@H](c3ccccc3O2)N1C(=O)C(C)(C)C` [Compound 2-31, 2,2-dimethyl-1-((2S,3R,5S)-3-methyl-2,3-dihydro-2,5-methanobenzo[f][1,4]oxaze-pin-4(5H)-yl)propan-1-one]: 132 nM; `CC(C)(C(=O)N1C[C@@H]2C[C@H]1c1cc(F)cc(C#N)c1O2)C(F)F` [Compound 2-11, (2S,5S)-4-(3,3-difluoro-2,2-dimethylpropanoyl)-7-fluoro-2,3,4,5-tetrahydro-2,5-methano-1,4-benzoxazepine-9-carbonitrile]: 26 nM.
Take `CC1(C(=O)N2C[C@@H]3C[C@H]2c2ccccc2O3)CCOC1` (mixture of isomers) [Compound 1-50, [(2S,5S)-2,3-dihydro-2,5-methano-1,4-benzoxazepin-4(5H)-yl]-[(R and S)-3-methyloxolan-3-yl]methanone]: the IC50 worked out at 393 nM.
Next, `O=C(N1C[C@@H]2C[C@H]1c1ccccc1O2)C12CC(C1)C2` [Compound 1-38, (bicyclo[1.1.1]pentan-1-yl)[(2S,5S)-2,3-dihydro-2,5-methano-1,4-benzoxazepin-4(5H)-yl]methanone]: 146 nM.
Next, `CC(C)(C(=O)N1C[C@@H]2C[C@H]1c1cccc(C#N)c1O2)C(F)F` [Compound 2-19, (2S,5S)-4-(3,3-difluoro-2,2-dimethylpropanoyl)-2,3,4,5-tetrahydro-2,5-methano-1,4-benzoxazepine-9-carbonitrile]: 18 nM; `N#CC12CCC(C(=O)N3C[C@@H]4C[C@H]3c3ccccc3O4)(CC1)CC2` [Compound 1-47, 4-[(2S,5S)-2,3-dihydro-2,5-methano-1,4-benzoxazepine-4(5H)-carbonyl]bicyclo[2.2.2] octane-1-carbonitrile]: 281 nM.
Next, `C[C@H]1CC[C@@](C)(C(=O)N2C[C@@H]3C[C@H]2c2ccccc2O3)C1(C)C` (racemic) [Compound 1-32, [(2S,5S)-2,3-dihydro-2,5-methano-1,4-benzoxazepin-4(5H)-yl][(1R,3S and 1S,3R)-1,2,2,3-tetramethylcyclopentyl] methanone]: 391 nM; `CC(C)(C(=O)N1C[C@@H]2C[C@H]1c1cc(F)cc(F)c1O2)C(F)F` [Compound 2-26, 1-[(2S,5S)-7,9-difluoro-2,3-dihydro-2,5-methano-1,4-benzoxazepin-4(5H)-yl]-3,3-difluoro-2,2-dimethylpropan-1-one]: 12 nM.
As for `COc1ccc(CC(C)(C)C(=O)N2C[C@@H]3C[C@H]2c2ccccc2O3)cc1` [Compound 1-58, 1-[(2S,5S)-2,3-dihydro-2,5-methano-1,4-benzoxazepin-4(5H)-yl]-3-(4-methoxyphenyl)-2,2-dimethylpropan-1-one], the IC50 is 887 nM.
Next, `O=C(N1C[C@@H]2C[C@H]1c1cc(Cl)ccc1O2)C12CCC(F)(CC1)C2` [Compound 2-32, ((2S,5S)-7-chloro-2,3-dihydro-2,5-methanobenzo[f][1,4]oxaze-pin-4(5H)-yl)(4-fluorobicyclo[2.2.1]heptan-1-yl)methanone]: 39 nM; `CC1(C(=O)N2C[C@@H]3C[C@H]2c2ccccc2O3)CC(F)(F)C1` [Compound 1-31, (3,3-difluoro-1-methylcyclobutyl)[(2S,5S)-2,3-dihydro-2,5-methano-1,4-benzoxazepin-4(5H)-yl]methanone]: 157 nM; `CC1(C(=O)N2C[C@@H]3C[C@H]2c2cccc(F)c2O3)CC(C#N)C1` (stereo partly drawn) [Compound 2-30, 3-((2S,5S)-9-fluoro-2,3,4,5-tetrahydro-2,5-methanobenzo[f][1,4]oxaze-pine-4-carbonyl)-3-methylcyclobutane-1-carbonitrile]: 75 nM.
The same measure for `CCC(C)(C)C(=O)N1C[C@@H]2C[C@H]1c1ccccc1O2` [Compound 1-22, 1-[(2S,5S)-2,3-dihydro-2,5-methano-1,4-benzoxazepin-4(5H)-yl]-2,2-dimethylbutan-1-one]: 21 nM; for `CC(C)(C(=O)N1C[C@@H]2C[C@H]1c1cc(F)cc(Cl)c1O2)C(F)F` [Compound 2-24, 1-[(2S,5S)-9-chloro-7-fluoro-2,3-dihydro-2,5-methano-1,4-benzoxazepin-4(5H)-yl]-3,3-difluoro-2,2-dimethylpropan-1-one]: 30 nM; for `O=C(N1C[C@@H]2C[C@H]1c1ccc(Cl)cc1O2)C12CCC(F)(CC1)C2` [Compound 2-33, ((2S,5S)-8-chloro-2,3-dihydro-2,5-methanobenzo[f][1,4]oxaze-pin-4(5H)-yl)(4-fluorobicyclo[2.2.1]heptan-1-yl)methanone]: 26 nM.
On to `CC(C)(C(=O)N1C[C@@H]2C[C@H]1c1ccccc1O2)C1CCC1` [Compound 1-11, 2-cyclobutyl-1-[(2S,5S)-2,3-dihydro-2,5-methano-1,4-benzoxazepin-4(5H)-yl]-2-methylpropan-1-one], for which the concentration for half-maximal inhibition (IC50) is 244 nM.
Next, `N#CC12CCC(C(=O)N3C[C@@H]4C[C@H]3c3cc(F)cc(F)c3O4)(C1)C2` [Compound 2-36, 4-((2S,5S)-7,9-difluoro-2,3,4,5-tetrahydro-2,5-methanobenzo[f][1,4]oxaze-pine-4-carbonyl)bicyclo[2.1.1] hexane-1-carbonitrile]: 19 nM; `O=C(N1C[C@@H]2C[C@H]1c1ccccc1O2)C1(C(F)(F)F)CCCC1` [Compound 1-26, [(2S,5S)-2,3-dihydro-2,5-methano-1,4-benzoxazepin-4(5H)-yl][1-(trifluoromethyl)cyclopentyl]methanone]: 60 nM.
The same measure for `O=C(N1C[C@@H]2C[C@H]1c1ccccc1O2)C12CC(C(F)F)(C1)C2` [Compound 1-60, [3-(difluoromethyl)bicyclo [1.1.1]pentan-1-yl][(2S,5S)-2,3-dihydro-2,5-methano-1,4-benzoxazepin-4(5H)-yl]methanone]: 512 nM; for `CC(C)(C)C(=O)N1C[C@@H]2C[C@H]1c1cc(F)cc(F)c1O2` [Compound 2-4, 1-[(2S,5S)-7,9-difluoro-2,3-dihydro-2,5-methano-1,4-benzoxazepin-4(5H)-yl]-2,2-dimethylpropan-1-one]: 60 nM; for `O=C(C1CCCCC12CC2)N1C[C@@H]2C[C@H]1c1ccccc1O2` (mixture of isomers) [Compound 1-35, [(2S,5S)-2,3-dihydro-2,5-methano-1,4-benzoxazepin-4(5H)-yl]-[(R and S)-spiro[2.5]octan-4-yl]methanone]: 220 nM.
The same measure for `COC(=O)C12CCC(C(=O)N3C[C@@H]4C[C@H]3c3ccccc3O4)(CC1)C2` [Compound 1-55, methyl 4-[(2S,5S)-2,3-dihydro-2,5-methano-1,4-benzoxazepine-4(5H)-carbonyl]bicyclo[2.2.1] heptane-1-carboxylate]: 43 nM.
